Where “and” joins values, the source holds several entries; their conditions need not be identical. Equal values may be shown once. ± gives the expanded uncertainty stated by the source.
Settings: Liquid, Calculated from knudsen effusion weight loss

CCCc1cc(=O)[nH]c(=S)[nH]1 [6-propyl-2-thiouracil]
Settings	vapor or sublimation pressure
401.14 K	0.000103 ± 5e-06 kPa and 0.000101 ± 5e-06 kPa and 9.7e-05 ± 5e-06 kPa
403.18 K	0.000124 ± 6e-06 kPa and 0.000123 ± 6e-06 kPa and 0.000118 ± 6e-06 kPa
405.17 K	0.000151 ± 8e-06 kPa and 0.000144 ± 7e-06 kPa
407.15 K	0.000196 ± 1e-05 kPa and 0.000185 ± 9e-06 kPa and 0.000178 ± 9e-06 kPa
409.17 K	0.000231 ± 1.2e-05 kPa and 0.000224 ± 1.1e-05 kPa and 0.000216 ± 1.1e-05 kPa
411.16 K	0.000274 ± 1.4e-05 kPa and 0.000265 ± 1.3e-05 kPa
413.15 K	0.000332 ± 1.7e-05 kPa and 0.000325 ± 1.6e-05 kPa and 0.000317 ± 1.6e-05 kPa
415.17 K	0.00041 ± 2.1e-05 kPa and 0.000398 ± 2e-05 kPa and 0.000382 ± 1.9e-05 kPa
417.18 K	0.000484 ± 2.4e-05 kPa and 0.000485 ± 2.4e-05 kPa and 0.000468 ± 2.3e-05 kPa
419.15 K	0.000583 ± 2.9e-05 kPa and 0.000558 ± 2.8e-05 kPa
421.22 K	0.000714 ± 3.6e-05 kPa and 0.000706 ± 3.5e-05 kPa and 0.00068 ± 3.4e-05 kPa
423.21 K	0.000853 ± 4.3e-05 kPa and 0.000839 ± 4.2e-05 kPa and 0.00083 ± 4.2e-05 kPa
